Tested on: HEK293 cells
Assay: Preliminary screening as DNA vectors, GFP transfection of HEK293 cells
Assay type: cell-based
Conditions: HEK293 cells; lipid/DOPE liposome with 75 ng plasmid DNA (psin-EGFP-IRES-Puro); number of cells expressing GFP divided by total number of nuclei (Hoechst)
Outline: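 First, amino lipid and DOPE were vortexed in sodium acetate buffer (pH 5.6) to form liposomes. Next, these were held with 75 ng EGFP plasmid at room temperature for 30 min. Finally, HEK293 cells were added, cultured at 37° C., Hoechst-stained, and GFP+/total nuclei scored by imaging.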

Row | Compound | Absolute DNA transfection efficiency in HEK293 cells
1 | CCCCCCCCCCCCCNc1nc(NCCCCCCCCCCCC)nc(NCCN2CCCCC2)n1 [Compound N12N13D4] | 0.0%
2 | CCCCCCCCCCCCCNc1nc(NCCCCCCCCCCCC)nc(NCCN2CCN(C)CC2)n1 [Compound N12N13D5] | 0.3%
3 | CCCCCCCCCCCCCNc1nc(NCCCCCCCCCCCC)nc(NCCCN(C)C)n1 [Compound N12N13D6] | 0.5%
4 | CCCCCCCCCCCCCNc1nc(NCCCCCCCCCCCC)nc(NCCN(CC)CC)n1 [Compound N12N13D7] | 0.2%
5 | CCCCCCCCCCCCCNc1nc(NCCCCCCCCCCCC)nc(NCCCN2CCOCC2)n1 [Compound N12N13D8] | 0.3%
6 | CCCCCCCCCCCCCNc1nc(NCCCCCCCCCCCC)nc(NCCCN2CCN(C)CC2)n1 [Compound N12N13D9] | 0.3%
7 | CCCCCCCCCCCCCNc1nc(NCCCCCCCCCCCC)nc(NCC2CCN(C)CC2)n1 [Compound N12N13D10] | 0.2%
8 | CCCCCCCCCCCCCCCNc1nc(NCCCCCCCCCCCC)nc(NCCN(C)C)n1 [Compound N12N15D1] | 1.5%
9 | CCCCCCCCCCCCCCCNc1nc(NCCCCCCCCCCCC)nc(NCCN2CCOCC2)n1 [Compound N12N15D2] | 0.3%
10 | CCCCCCCCCCCCCCCNc1nc(NCCCCCCCCCCCC)nc(NCCN2CCCC2)n1 [Compound N12N15D3] | 1.1%
11 | CCCCCCCCCCCCCCCNc1nc(NCCCCCCCCCCCC)nc(NCCN2CCCCC2)n1 [Compound N12N15D4] | 1.4%
12 | CCCCCCCCCCCCCCCNc1nc(NCCCCCCCCCCCC)nc(NCCN2CCN(C)CC2)n1 [Compound N12N15D5] | 0.4%
13 | CCCCCCCCCCCCCCCNc1nc(NCCCCCCCCCCCC)nc(NCCCN(C)C)n1 [Compound N12N15D6] | 0.9%
14 | CCCCCCCCCCCCCCCNc1nc(NCCCCCCCCCCCC)nc(NCCN(CC)CC)n1 [Compound N12N15D7] | 0.8%
15 | CCCCCCCCCCCCCCCNc1nc(NCCCCCCCCCCCC)nc(NCCCN2CCOCC2)n1 [Compound N12N15D8] | 1.4%
16 | CCCCCCCCCCCCCCCNc1nc(NCCCCCCCCCCCC)nc(NCCCN2CCN(C)CC2)n1 [Compound N12N15D9] | 1.5%
17 | CCCCCCCCCCCCCCCNc1nc(NCCCCCCCCCCCC)nc(NCC2CCN(C)CC2)n1 [Compound N12N15D10] | 0.7%
18 | CCCCCCCCCCCCCCCCNc1nc(NCCCCCCCCCCCC)nc(NCCN(C)C)n1 [Compound N12N16D1] | 2.6%
19 | CCCCCCCCCCCCCCCCNc1nc(NCCCCCCCCCCCC)nc(NCCN2CCOCC2)n1 [Compound N12N16D2] | 0.9%
20 | CCCCCCCCCCCCCCCCNc1nc(NCCCCCCCCCCCC)nc(NCCN2CCCC2)n1 [Compound N12N16D3] | 1.2%
21 | CCCCCCCCCCCCCCCCNc1nc(NCCCCCCCCCCCC)nc(NCCN2CCCCC2)n1 [Compound N12N16D4] | 1.2%

Row | Compound | Absolute DNA transfection efficiency in HEK293 cells
22 | CCCCCCCCCCCCCCCCNc1nc(NCCCCCCCCCCCC)nc(NCCN2CCN(C)CC2)n1 [Compound N12N16D5] | 0.1%
23 | CCCCCCCCCCCCCCCCNc1nc(NCCCCCCCCCCCC)nc(NCCCN(C)C)n1 [Compound N12N16D6] | 1.9%
24 | CCCCCCCCCCCCCCCCNc1nc(NCCCCCCCCCCCC)nc(NCCN(CC)CC)n1 [Compound N12N16D7] | 0.4%
25 | CCCCCCCCCCCCCCCCNc1nc(NCCCCCCCCCCCC)nc(NCCCN2CCOCC2)n1 [Compound N12N16D8] | 0.7%
26 | CCCCCCCCCCCCCCCCNc1nc(NCCCCCCCCCCCC)nc(NCCCN2CCN(C)CC2)n1 [Compound N12N16D9] | 0.9%
27 | CCCCCCCCCCCCCCCCNc1nc(NCCCCCCCCCCCC)nc(NCC2CCN(C)CC2)n1 [Compound N12N16D10] | 0.0%
28 | CCCCCCCCCCCCCCCCCCNc1nc(NCCCCCCCCCCCC)nc(NCCN(C)C)n1 [Compound N12N18D1] | 1.4%
29 | CCCCCCCCCCCCCCCCCCNc1nc(NCCCCCCCCCCCC)nc(NCCN2CCOCC2)n1 [Compound N12N18D2] | 0.6%
30 | CCCCCCCCCCCCCCCCCCNc1nc(NCCCCCCCCCCCC)nc(NCCN2CCCC2)n1 [Compound N12N18D3] | 3.5%
31 | CCCCCCCCCCCCCCCCCCNc1nc(NCCCCCCCCCCCC)nc(NCCN2CCCCC2)n1 [Compound N12N18D4] | 0.9%
32 | CCCCCCCCCCCCCCCCCCNc1nc(NCCCCCCCCCCCC)nc(NCCN2CCN(C)CC2)n1 [Compound N12N18D5] | 0.0%
33 | CCCCCCCCCCCCCCCCCCNc1nc(NCCCCCCCCCCCC)nc(NCCCN(C)C)n1 [Compound N12N18D6] | 1.5%
34 | CCCCCCCCCCCCCCCCCCNc1nc(NCCCCCCCCCCCC)nc(NCCN(CC)CC)n1 [Compound N12N18D7] | 1.2%
35 | CCCCCCCCCCCCCCCCCCNc1nc(NCCCCCCCCCCCC)nc(NCCCN2CCOCC2)n1 [Compound N12N18D8] | 1.5%
36 | CCCCCCCCCCCCCCCCCCNc1nc(NCCCCCCCCCCCC)nc(NCCCN2CCN(C)CC2)n1 [Compound N12N18D9] | 0.1%
37 | CCCCCCCCCCCCCCCCCCNc1nc(NCCCCCCCCCCCC)nc(NCC2CCN(C)CC2)n1 [Compound N12N18D10] | 0.0%
38 | CCCCCCCCCCCCCNc1nc(NCCCCCCCCCCCCC)nc(NCCN(C)C)n1 [Compound N13N13D1] | 1.5%
39 | CCCCCCCCCCCCCNc1nc(NCCCCCCCCCCCCC)nc(NCCN2CCOCC2)n1 [Compound N13N13D2] | 0.0%
40 | CCCCCCCCCCCCCNc1nc(NCCCCCCCCCCCCC)nc(NCCN2CCCC2)n1 [Compound N13N13D3] | 0.7%
41 | CCCCCCCCCCCCCNc1nc(NCCCCCCCCCCCCC)nc(NCCN2CCCCC2)n1 [Compound N13N13D4] | 1.5%

Tested on: HEK293 cells
Assay: Preliminary screening as mRNA vectors, EGFP mRNA transfection of HEK293 cells
Assay type: cell-based
Conditions: HEK293 cells, 96-well plates, EGFP mRNA 50 ng per well; percentage of GFP fluorescent cells relative to total number of cells (Hoechst)
Outline: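 Screening format: EGFP mRNA transfection (50 ng/well) into HEK293 in 10% FBS-supplemented DMEM. Percent green fluorescent cells, normalised to Hoechst nuclear count, gave the value; Lipofectamine2000 was the reference transfectant.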

Row | Compound | Absolute mRNA transfection efficiency in HEK293 cells
42 | CCCCCCCCCCCCCNc1nc(NCCCCCCCCCCCC)nc(NCCN2CCCCC2)n1 [Compound N12N13D4] | 0.0%
43 | CCCCCCCCCCCCCNc1nc(NCCCCCCCCCCCC)nc(NCCN2CCN(C)CC2)n1 [Compound N12N13D5] | 0.0%
44 | CCCCCCCCCCCCCNc1nc(NCCCCCCCCCCCC)nc(NCCCN(C)C)n1 [Compound N12N13D6] | 1.0%
45 | CCCCCCCCCCCCCNc1nc(NCCCCCCCCCCCC)nc(NCCN(CC)CC)n1 [Compound N12N13D7] | 0.3%
46 | CCCCCCCCCCCCCNc1nc(NCCCCCCCCCCCC)nc(NCCCN2CCOCC2)n1 [Compound N12N13D8] | 0.0%
47 | CCCCCCCCCCCCCNc1nc(NCCCCCCCCCCCC)nc(NCCCN2CCN(C)CC2)n1 [Compound N12N13D9] | 1.8%
48 | CCCCCCCCCCCCCNc1nc(NCCCCCCCCCCCC)nc(NCC2CCN(C)CC2)n1 [Compound N12N13D10] | 0.2%
49 | CCCCCCCCCCCCCCCNc1nc(NCCCCCCCCCCCC)nc(NCCN(C)C)n1 [Compound N12N15D1] | 1.0%
50 | CCCCCCCCCCCCCCCNc1nc(NCCCCCCCCCCCC)nc(NCCN2CCOCC2)n1 [Compound N12N15D2] | 0.4%
51 | CCCCCCCCCCCCCCCNc1nc(NCCCCCCCCCCCC)nc(NCCN2CCCC2)n1 [Compound N12N15D3] | 6.5%
52 | CCCCCCCCCCCCCCCNc1nc(NCCCCCCCCCCCC)nc(NCCN2CCCCC2)n1 [Compound N12N15D4] | 1.3%
53 | CCCCCCCCCCCCCCCNc1nc(NCCCCCCCCCCCC)nc(NCCN2CCN(C)CC2)n1 [Compound N12N15D5] | 3.1%
54 | CCCCCCCCCCCCCCCNc1nc(NCCCCCCCCCCCC)nc(NCCCN(C)C)n1 [Compound N12N15D6] | 2.3%
55 | CCCCCCCCCCCCCCCNc1nc(NCCCCCCCCCCCC)nc(NCCN(CC)CC)n1 [Compound N12N15D7] | 1.4%
56 | CCCCCCCCCCCCCCCNc1nc(NCCCCCCCCCCCC)nc(NCCCN2CCOCC2)n1 [Compound N12N15D8] | 0.9%
57 | CCCCCCCCCCCCCCCNc1nc(NCCCCCCCCCCCC)nc(NCCCN2CCN(C)CC2)n1 [Compound N12N15D9] | 0.9%
58 | CCCCCCCCCCCCCCCNc1nc(NCCCCCCCCCCCC)nc(NCC2CCN(C)CC2)n1 [Compound N12N15D10] | 1.2%
59 | CCCCCCCCCCCCCCCCNc1nc(NCCCCCCCCCCCC)nc(NCCN(C)C)n1 [Compound N12N16D1] | 4.4%
60 | CCCCCCCCCCCCCCCCNc1nc(NCCCCCCCCCCCC)nc(NCCN2CCOCC2)n1 [Compound N12N16D2] | 0.0%
61 | CCCCCCCCCCCCCCCCNc1nc(NCCCCCCCCCCCC)nc(NCCN2CCCC2)n1 [Compound N12N16D3] | 3.3%
62 | CCCCCCCCCCCCCCCCNc1nc(NCCCCCCCCCCCC)nc(NCCN2CCCCC2)n1 [Compound N12N16D4] | 0.7%

Row | Compound | Absolute mRNA transfection efficiency in HEK293 cells
63 | CCCCCCCCCCCCCCCCNc1nc(NCCCCCCCCCCCC)nc(NCCN2CCN(C)CC2)n1 [Compound N12N16D5] | 1.4%
64 | CCCCCCCCCCCCCCCCNc1nc(NCCCCCCCCCCCC)nc(NCCCN(C)C)n1 [Compound N12N16D6] | 1.9%
65 | CCCCCCCCCCCCCCCCNc1nc(NCCCCCCCCCCCC)nc(NCCN(CC)CC)n1 [Compound N12N16D7] | 0.3%
66 | CCCCCCCCCCCCCCCCNc1nc(NCCCCCCCCCCCC)nc(NCCCN2CCOCC2)n1 [Compound N12N16D8] | 0.9%
67 | CCCCCCCCCCCCCCCCNc1nc(NCCCCCCCCCCCC)nc(NCCCN2CCN(C)CC2)n1 [Compound N12N16D9] | 0.7%
68 | CCCCCCCCCCCCCCCCNc1nc(NCCCCCCCCCCCC)nc(NCC2CCN(C)CC2)n1 [Compound N12N16D10] | 0.6%
69 | CCCCCCCCCCCCCCCCCCNc1nc(NCCCCCCCCCCCC)nc(NCCN(C)C)n1 [Compound N12N18D1] | 9.4%
70 | CCCCCCCCCCCCCCCCCCNc1nc(NCCCCCCCCCCCC)nc(NCCN2CCOCC2)n1 [Compound N12N18D2] | 0.9%
71 | CCCCCCCCCCCCCCCCCCNc1nc(NCCCCCCCCCCCC)nc(NCCN2CCCC2)n1 [Compound N12N18D3] | 13.4%
72 | CCCCCCCCCCCCCCCCCCNc1nc(NCCCCCCCCCCCC)nc(NCCN2CCCCC2)n1 [Compound N12N18D4] | 1.9%
73 | CCCCCCCCCCCCCCCCCCNc1nc(NCCCCCCCCCCCC)nc(NCCN2CCN(C)CC2)n1 [Compound N12N18D5] | 1.9%
74 | CCCCCCCCCCCCCCCCCCNc1nc(NCCCCCCCCCCCC)nc(NCCCN(C)C)n1 [Compound N12N18D6] | 4.8%
75 | CCCCCCCCCCCCCCCCCCNc1nc(NCCCCCCCCCCCC)nc(NCCN(CC)CC)n1 [Compound N12N18D7] | 1.4%
76 | CCCCCCCCCCCCCCCCCCNc1nc(NCCCCCCCCCCCC)nc(NCCCN2CCOCC2)n1 [Compound N12N18D8] | 0.5%
77 | CCCCCCCCCCCCCCCCCCNc1nc(NCCCCCCCCCCCC)nc(NCCCN2CCN(C)CC2)n1 [Compound N12N18D9] | 0.7%
78 | CCCCCCCCCCCCCCCCCCNc1nc(NCCCCCCCCCCCC)nc(NCC2CCN(C)CC2)n1 [Compound N12N18D10] | 1.0%
79 | CCCCCCCCCCCCCNc1nc(NCCCCCCCCCCCCC)nc(NCCN(C)C)n1 [Compound N13N13D1] | 0.4%
80 | CCCCCCCCCCCCCNc1nc(NCCCCCCCCCCCCC)nc(NCCN2CCOCC2)n1 [Compound N13N13D2] | 0.9%
81 | CCCCCCCCCCCCCNc1nc(NCCCCCCCCCCCCC)nc(NCCN2CCCC2)n1 [Compound N13N13D3] | 3.5%
82 | CCCCCCCCCCCCCNc1nc(NCCCCCCCCCCCCC)nc(NCCN2CCCCC2)n1 [Compound N13N13D4] | 3.3%
